{"source": "patent US11331269B2", "about": "“Methods and compositions targeting lung microbiota and its responding immune pathways for lung cancer treatment” (Massachusetts Institute of Technology, priority 2018, dated 2022)", "key": {"[1]": {"tested_on": "bacterial abundance in the gut", "experiment": "Fecal bacterial load by 16S rDNA-based qPCR", "assay_type": "in vivo, mouse", "details": "SPF KP mice, metronidazole alone in drinking water", "quoted_text": "Fecal pellets were collected from the colon at the time of tissue harvest. BALF and fecal samples were processed for DNA isolation using a previously established protocol (Palm, et al., Cell. 158(5):1000-1010 (2014); Turnbaugh, et al., Nature. 457(7228):480-4 (2009)). […] E. coli genomic DNA was used as a standard, with samples at 1, 0.1, 0.01, and 0.001 ng per reaction used to create a standard curve."}, "[2]": {"tested_on": "IL-17 producing γδ T cells", "experiment": "Flow cytometry of IL-17 producing γδ T cells in tumor-bearing lung", "assay_type": "in vivo, mouse", "details": "KP mice, antibiotics in drinking water", "description": "Mice were injected retro-orbitally with a PE-CF594 conjugated anti-CD45 antibody (30-F11, BD Bioscience) 2 minutes prior to euthanasia to label the immune cells in the circulation. Lungs were collected, cut into small pieces, and digested with 125 U/mL collagenase IV (Worthington Biochemical) and 40 U/mL DNase I (Roche) for 30 minutes at 37° C. Dissociated lung tissue was then filtered with a 100 μm cell strainer. Spleen and lymph node samples were ground and passed through a 100 μm cell strainer. After blocking FcgRIII/II with an anti-CD16/CD32 mAb (eBioscience), single cell suspensions were stained with the following antibodies: CD45.2 (104), CD45.1 (A20), Ly6G (1A8), CD11b (M1/70), TCRβ (H57-597), TCRγδ (GL3 or UC7-13D5), CD3 (17A2), CD4 (RM4-5), CD8 (53-6.7), Vγ1 (Vg1.1, 2.11), Vγ4 (Vγ2, UC3-10A6), IFN-γ (XMG1.2), IL-17A (TC11-18H10.1), TNF-α (MP6-XT22), IL-17F (ebio18F10), CD44 (IM7), CD27 (LG.3A10), CD69 (H1.2F3), PD-1 (29F. 1A12), PD-L1 (10F.9G2), T-bet (eBio4B10), RORγt (B2D), PLZF (Mags.21F7) and Ki67 (B56) purchased from eBioscience, BD or Biolegend. […] Flow cytometry was performed on the LSR II or LSRFortessa (BD), and data were analyzed by the FlowJo software (Treestar). […]\nFlow cytometry and FACS was performed as described above in Example 3. […] Flow cytometry was performed on the LSR II or LSRFortessa (BD), and data were analyzed by the FlowJo software (Treestar). […]"}, "IL-17A": {"tested_on": "IL-17A", "experiment": "IL-17A ELISA in BALF or serum of KP mice", "assay_type": "in vivo, mouse", "details": "antibiotics in drinking water", "description": "IL-17 levels in serum or bronchoalveolar lavage fluid were measured using a mouse IL-17A ELISA kit (eBioscience) according to the manufacturer's instructions.\nIL-17 levels were measured using a mouse IL-17A ELISA kit (eBioscience) according to the manufacturer's instructions.\nIL-17A levels were measured using a mouse IL-17A ELISA kit (eBioscience) according to the manufacturer's instructions."}, "[3]": {"tested_on": "lung adenocarcinoma in KP mice", "experiment": "Tumor development (tumor burden/grade by histology) in autochthonous KP GEM model of lung adenocarcinoma", "details": "SPF KP mice, metronidazole alone (1 g/L) in drinking water starting 5 weeks post tumor initiation (FIG. 2E)", "excerpt": "The genetically-engineered mouse (GEM) model of human LUAD has previously been described (DuPage, et al.). In this model, the mice harbor conditional alleles of Kras^LSL-G12D and p53^flox/flox (KP mice). Upon intratracheal infection with adenoviral vectors expressing the Cre-recombinase under the control of the Sftpc promoter, oncogenic KrasG12D is activated and the tumor suppressor p53 is deleted in lung epithelial cells to induce lung adenoma and adenocarcinoma.\nGerm-free KP mice were housed in gnotobiotic isolators, which were sampled every 2 weeks and confirmed negative for bacterial and fungal contaminants by culture, fecal Gram stain, and PCR using universal 16S rRNA primers. […]\nTumor-bearing lung lobes and a portion of the spleen were fixed in 4% paraformaldehyde overnight and embedded in paraffin. […] Digitally scanned images of H&E or Ki67-stained slides were created with the Aperio ScanScope AT2 at 20× magnification and analyzed with the Aperio's WebScope software. For tumor burden quantification, tumor regions were outlined and the percentage of tumor area relative to total lung area was calculated for each mouse. For Ki67 index, tumor cells were classified based on the intensity of the nuclear Ki67 staining from 0 to 3+ by using a built-in Nuclear algorithm in the Webscope, and the percentage of nuclei with intense nuclear staining (3+) in total nuclei was calculated. […]"}, "[4]": {"tested_on": "KP tumor-derived cell lines", "experiment": "In vitro cell proliferation of tumor cell lines derived from primary lung tumors of KP mice", "assay_type": "cell-based, mouse", "details": "live cells 72 hours post treatment", "description": "Tumor cell lines were derived from primary lung tumors of KP mice, and maintained in DMEM medium (Gibco) supplemented with 10% FBS (Sigma). Cells were serum-starved for 24 hours (1% FBS) before treated with recombinant human amphiregulin (Sigma-Aldrich) or recombinant mouse IL-22 (R&D Systems) at the indicated dose, or left untreated as controls. The number of live cells was determined 72 hours post treatment by counting the Trypan Blue (Gibco) negative cells or through the CellTiter-Glo Luminescent Cell Viability Assay (Promega) according to the manufacturer's instructions."}}}
{"molecule": "Cc1ncc([N+](=O)[O-])n1CCO", "note": "[metronidazole]", "values": [{"measurement": "overall bacterial abundance in the gut", "setting": "[1]", "value": "without substantially reducing the overall bacterial abundance in the gut"}, {"measurement": "abundance of IL-17 producing γδ T cells in the tumor-bearing lung", "setting": "[2]", "value": "dramatically decreased"}, {"measurement": "IL-17A levels in the BALF or serum", "setting": "IL-17A", "value": "lower IL-17A levels"}, {"measurement": "tumor growth in the lung (tumor burden)", "setting": "[3]", "value": "effectively suppressed tumor growth in the lung"}]}
{"molecule": "recombinant IL-22: recombinant mouse IL-22 (R&D Systems) (protein, UniProt Q9JJY9 34-179, looked up) Interleukin-22: LPVNTRCKLEVSNFQQPYIVNRTFMLAKEASLADNNTDVRLIGEKLFRGVSAKDQCYLMKQVLNFTLEDVLLPQSDRFQPYMQEVVPFLTKLSNQLSSCHISGDDQNIQKNVRRLKETVKKLGESGEIKAIGELDLLFMSLRNACV", "values": [{"measurement": "tumor cell proliferation in vitro", "setting": "[4]; recombinant mouse IL-22, serum-starved KP tumor cell lines", "value": "stimulated tumor cell proliferation in vitro"}]}
{"molecule": "recombinant amphiregulin: recombinant human amphiregulin (Sigma-Aldrich), EGFR ligand (protein, UniProt P15514 101-187, looked up) Amphiregulin: SVRVEQVVKPPQNKTESENTSDKPKRKKKGGKNGKNRRNRKKKNPCNAEFQNFCIHGECKYIEHLEAVTCKCQQEYFGERCGEKSMK", "values": [{"measurement": "proliferation of KP tumor-derived cell lines", "setting": "[4]; recombinant human amphiregulin, serum-starved cells", "value": "promoted proliferation of KP tumor-derived cell lines in a dose-dependent fashion"}]}
